The values below come from ChEMBL document CHEMBL2385059, “3-Hydroxyquinolin-2(1H)-ones As Inhibitors of Influenza A Endonuclease” (ACS Med Chem Lett, 2013).

The nature of assay [1]: Inhibition of H1N1 Influenza A endonuclease after 1 hr by fluorescence assay. Set-up: species or system Influenza A virus.
Assay [2] concerns HEK293. The assay can be described thus: Cytotoxicity against HEK293 cells after 4 days by MTT assay. Type of assay: cell-based. Particulars: Homo sapiens, HEK293, 96 h. In general terms: Tetrazolium dyes change colour on reduction, which living cells bring about.
Assay [3] relates to MDCK. The assay can be described thus: Cytotoxicity against dog MDCK cells after 4 days by MTT assay. Type of assay: cell-based. The settings on record: Canis lupus familiaris, 96 h.

Broadly, the IC50 is the concentration at which inhibition is half-maximal. A higher IC50 goes with a need for much substance. Turning to `Oc1nc2ccccc2c(Br)c1O`, in assay [1], the IC50 turned out to be 53 µM.

Take `O=c1[nH]c2cc(-c3ccc(F)cc3)ccc2c(Br)c1O`: inhibition in assay [1] was half-maximal at 1.1 µM (IC50).

In turn, `O=c1[nH]c2cc(-c3ccc(F)cc3)ccc2c(-c2ccccc2)c1O` gave an IC50 in assay [1] of 2 µM.

`Cc1c(O)c(=O)[nH]c2cc(-c3ccc(F)cc3)ccc12` registered a concentration for half-maximal inhibition (IC50) in assay [1] of 13 µM.

With `O=c1[nH]c2cccc(Br)c2cc1O`, the IC50 in assay [2] is over 10 µM; in assay [1] it was 12 µM; in assay [3], over 10 µM.

Take `O=c1[nH]c2ccc(Br)cc2cc1O`: the IC50 was over 10 µM in assay [2], 7.4 µM in assay [1] and over 10 µM in assay [3].

With `O=c1[nH]c2cc(Br)ccc2cc1O`, the IC50 in assay [2] is over 10 µM; in assay [1], 7.6 µM; in assay [3], over 10 µM.

Consider `O=c1[nH]c2c(Br)cccc2cc1O`, for which the IC50 in assay [2] was over 10 µM; in assay [1], 11 µM; in assay [3] it was over 10 µM.

As to `O=c1[nH]c2cccc(-c3ccc(F)cc3)c2cc1O`, half-maximal inhibition in assay [1] (IC50) required 3.3 µM.

In assay [1], `O=c1[nH]c2ccc(-c3ccc(F)cc3)cc2cc1O` showed an IC50 of 0.5 µM.

On to `O=c1[nH]c2cc(-c3ccc(F)cc3)ccc2cc1O`, for which it took 0.5 µM to reach half-maximal inhibition in assay [1] (IC50).

Turning to `O=c1[nH]c2c(-c3ccc(F)cc3)cccc2cc1O`, the IC50 in assay [1] worked out at 4.7 µM.

As for `O=c1[nH]c2ccccc2c(-c2ccc(F)cc2)c1O`, the IC50 in assay [1] amounted to 11 µM.

In assay [1], `O=c1[nH]c2ccccc2c(-c2ccccc2)c1O` gave an IC50 of over 20 µM.

`Cc1c(O)c(=O)[nH]c2ccccc12`: in assay [1], the IC50 was over 100 µM.
